Experimental data published in patent EP0729957A1, “PYRIDINE COMPOUND AND MEDICINAL USE THEREOF” (YOSHITOMI PHARMACEUTICAL INDUSTRIES, LTD., priority 1993, dated 1995).
Counter-ions that a name gives are not always drawn. Like-named read-outs stand apart in the source and are kept apart here.

How the values were obtained:
[1] = test system: Helicobacter pylori; test: Antibacterial activity (in vitro) against Helicobacter pylori, agar dilution MIC; format: cell-based; conditions: clinical isolates (18 strains), agar plate, 37°C, 8% CO2, 3-4 days; for MIC50: minimum concentration necessary for inhibiting growth by 50%; for MIC90: minimum concentration necessary for inhibiting growth by 90%
[2] = test system: gastric acid secretion; test: Action on gastric acid secretion of rats subjected to gastroperfusion (histamine-induced); format: in vivo; conditions: 3 mg/kg i.v., 5 minutes before histamine hydrochloride (1 mg/kg i.v.); urethane-anesthetized Wistar rats
Experimental: Experimental Example 2: Action on gastric acid secretion of rats subjected to gastroperfusion
The experiment was done according to the method of Ghosh et al, Br. J. Pharmacol. 13, p 54 (1958). Wistar rats were fasted for 20 hours and anesthetized with urethane (1.5 g/kg, subcutaneous). A polyethylene tube for injection and discharge for gastroperfusion was attached to the rats. Gastroperfusion was performed using physiological saline (37°C) at a speed of 7 ml/min and the perfusate was recovered at 10-min intervals. Histamine hydrochloride (1 mg/kg) was intravenously administered at 1-hr intervals to induce secretion of gastric acid. A test solution containing the test compound was intravenously administered 5 minutes before the histamine hydrochloride administration. The acidity of the gastric acid was titrated up to pH 7.0 with an automatic titrator and percent suppression of gastric acid secretion by the test compound was determined.

[3] = Helicobacter pylori, read-out: MIC50
[4] = Helicobacter pylori, read-out: MIC90

For COCCOCCSc1ccnc(CSc2nc3ccccc3[nH]2)c1C [Example 17, 2-((3-methyl-4-(2-(2-methoxyethoxy)ethylthio)-2-pyridyl)methylthio)-1H-benzimidazole·hydrochloride], the MIC50 [1, 3] was 0.025 µg/mL and the MIC90 [1, 4] was 0.05 µg/mL.
For “2-((3-methyl-4-(2-methoxypolyethoxy)-2-pyridyl) methylsulfinyl)-1H-benzimidazole [Example 26]”, the “Suppression (%)” value [2] was 50%.
With “2-((3-methyl-4-(2-(2-methoxpolyethoxy)ethylthio)-2-pyridyl)methylsulfinyl)-1H-benzimidazole [Example 25]” the “Suppression (%)” value [2] was 100%.
In the case of “2-((3-methyl-4-(2-(2-methoxypolyethoxy)ethylthio)-2-pyridyl)methylthio)-1H-benzimidazole·hydrochloride [Example 22]”, the MIC50 [1] is reported as 0.025 µg/mL and the MIC90 [1] is reported as 0.025 µg/mL.
In the case of COCCOCCOCCSc1ccnc(CSc2nc3ccccc3[nH]2)c1C [Example 21, 2-((3-methyl-4-(2-(2-(2-methoxyethoxy)ethoxy)ethylthio)-2-pyridyl)methylthio)-1H-benzimidazole·hydrochloride], the MIC50 [1, 3] is reported as 0.012 µg/mL and the MIC90 [1, 4] is reported as 0.025 µg/mL.
